Publication PMC8824275, “Gastrointestinal Stability and Cytotoxicity of Bacteriocins From Gram-Positive and Gram-Negative Bacteria: A Comparative in vitro Study” (Frontiers in Microbiology, 2022)
“Also recorded” adds a separate entry of the source.

Test: In vitro simulated GI digestion (INFOGEST, static), stability by RP-HPLC and LC-MS
Assay type: in vitro ADME
Settings: 37°C
Description: In vitro simulated oral, gastric, and small intestinal digestion was adopted from standardized INFOGEST protocol ([Brodkorb et al., 2019]) in three independent replicates. The initial concentration of bacteriocins was selected in order to have sufficient quantity in the digestion mixture to conduct both activity assay by agar well diffusion and by RP-HPLC for quantification.
The entire digestion procedure was performed at 37°C.
Oral conditions: 5 mL of a 8 mg/mL bacteriocin solution (in water) were mixed with simulated salivary fluid [SSF: KCl 15.1 mM, KH2PO4 3.7 mM, NAHCO3 13.6 mM, MgCl2(H2O)6 0.15 mM, (NH4)2CO3 0.06 mM, HCl 1.1mM, CaCl2 (H2O)2 1.5 mM] in 1:1 (v/v) ratio, and the final solution was incubated for 2 min at 37°C.
Gastric conditions: The sample from the oral condition was diluted in 1:1 (v/v) ratio with simulated gastric fluid [SGF: KCl 6.9 mM, KH2PO4 0.9 mM, NAHCO3 25 mM, NaCl 47.2 mM, MgCl2(H2O)6 0.12 mM, (NH4)2CO3 0.5 mM, HCl 15.6 mM, CaCl2 (H2O)2, 0.15 mM] containing pepsin (2000 U/mL in the gastric mixture), and lipase (60 U/mL in the gastric mixture). […]
Small intestine conditions: Samples from gastric conditions were diluted in 1:1 (v/v) ratio with 20 mL of simulated intestinal fluid[SIF KCl 6.8 mM, KH2PO4 0.8 mM, NAHCO3 85 mM, NaCl 38.4 mM, MgCl2(H2O)6 0.33 Mm, HCl 8.4 mM, CaCl2 (H2O)2, 0.6 mM] containing bile salt (10 mmol/L in the final […] mixture) and pancreatin (100 U/mL in final digestion mixture) to acquire a final volume of 40 mL. […] Bacteriocins in the different samples were analyzed by analytical HPLC-UV and liquid-chromatography mass spectrometry (LC-MS/MS). […]
The digestion mixtures were analyzed by LC-MS/MS on an ultra-high-performance LC system (Ultimate 3000 RSLC, Thermo Fisher Scientific) connected to high-resolution electrospray ionization – quadrupole – time of flight (ESI-Q-TOF) mass spectrometer (Maxis II ETD, Bruker Daltonics). […] Data-dependent LC-MS/MS data were acquired in positive ion mode in the mass range m/z 250–2500, using collision induced dissociation with collision energy calculated from m/z and charge states. […]

C=C(NC(=O)[C@@H](NC(=O)[C@H](Cc1c[nH]cn1)NC(=O)[C@@H](NC(=O)[C@H](CO)NC(=O)[C@@H]1CS[C@@H](C)[C@H]2NC(=O)[C@H](C)NC(=O)[C@H](NC(=O)[C@H](CCCCN)NC(=O)[C@H](CCSC)NC(=O)[C@H](CC(N)=O)NC(=O)[C@@H]3CS[C@@H](C)[C@@H](NC(=O)[C@H](CCCCN)NC(=O)[C@@H]4CS[C@@H](C)[C@@H](NC(=O)[C@@H]5CSC[C@@H](NC(=O)/C(=C/C)NC(=O)[C@@H](N)[C@@H](C)CC)C(=O)N[C@@H]([C@@H](C)CC)C(=O)NC(=C)C(=O)N[C@@H](CC(C)C)C(=O)N5)C(=O)N5CCC[C@H]5C(=O)NCC(=O)N4)C(=O)NCC(=O)N[C@@H](C)C(=O)N[C@@H](CC(C)C)C(=O)N[C@@H](CCSC)C(=O)NCC(=O)N3)[C@H](C)SC[C@H](NC2=O)C(=O)N[C@@H](CC(N)=O)C(=O)N1)[C@@H](C)CC)C(C)C)C(=O)N[C@@H](CCCCN)C(=O)O [nisin Z]
Stability in gastric conditions (SGF with pepsin 2000 U/mL and lipase 60 U/mL, pH 3, 90 min, shaking, RP-HPLC and activity, three independent replicates): good gastric stability | Stability in small intestinal conditions (SIF with bile salt 10 mmol/L and pancreatin 100 U/mL, pH 7, 2 h, RP-HPLC and activity, three independent replicates): significantly degraded; also recorded: completely degraded | Stability in the GI tract (whole simulated digestion) (oral + gastric + small intestinal conditions): complete degradation
